# According to US12150939B2, “Therapeutic drug for ectopic ossification having mechanism to inhibit PAR1” (NATIONAL UNIVERSITY CORPORATION KUMAMOTO UNIVERSITY, priority 2015, dated 2024):
# B1: BMP6: bone morphogenetic protein used as osteogenic stimulus (protein, UniProt P22004 375-513, looked up)
# Bone morphogenetic protein 6: SASSRRRQQSRNRSTQSQDVARVSSASDYNSSELKTACRKHELYVSFQDLGWQDWIIAPKGYAANYCDGECSFPLNAHMNATNHAIVQTLVHLMNPEYVPKPCCAPTKLNAISVLYFDDNSNVILKKYRNMVVRACGCH
# How the values were obtained:
# FOP-derived fibroblasts [1] = assay: Differentiation of FOP-derived fibroblasts to osteoblasts in the absence of serum when using each inhibitor (ALP immunostaining and ALP activity); type: cell-based, human; conditions: BMP6 and TFLLR stimulation
# NOG mice = assay: Ectopic ossification in teratomas from FOP patient iPS cells implanted into testicle of NOG mice, PAR1 inhibitor (CT); type: in vivo; conditions: 0.2 mg/kg/day intraperitoneally once daily from 9 weeks after implantation
# FOP-derived fibroblasts [2] = assay: PAR1 mRNA expression by BMP6 stimulation in the presence of serum (qPCR), FOP-derived fibroblasts; type: cell-based, human; conditions: BMP6 50 ng/mL, over time, compared to normal subject-derived fibroblasts
# Procedure: (§1) • (1) Fibroblasts were created from skin biopsy explants from FOP patients and normal subjects under informed consent by a protocol approved by Ethics committee. • (2) Skin samples from patients and from normal subjects were finely cut and cultured in DMEM medium supplemented with 10% fetal bovine serum (FBS). • (3) After emergence of fibroblasts was observed, the fibroblasts were grown to introduce a reprogramming gene. The grown fibroblasts were then put in a solution for freezing containing 10% DMSO+90% FBS and cryopreserved. <2. […] Intensity of bands was evaluated by Image J software (NIH, USA). • (4) In immunoprecipitation, 293T cells in which Smads were overexpressed, and KDM6B or LSD1 were lysed in RIPA buffer (50 mM Tris-HCl, pH 7.4, 1 mM EDTA, 150 mM NaCl, 1% NP-40, protease/phosphatase inhibitor cocktail). […]
# [3] = tested on: normal subject-derived fibroblasts; assay: PAR1 mRNA expression by BMP6 stimulation in the presence of serum (qPCR), normal subject-derived fibroblasts; type: cell-based, human; conditions: BMP6 50 ng/mL, over time
# Procedure: as §1
# FOP-derived fibroblasts [4] = assay: Differentiation of FOP-derived fibroblasts to osteoblasts by BMP6 / TFLLR stimulation in the absence of serum (ALP immunostaining and ALP activity); type: cell-based, human; conditions: single stimulus
# Procedure: as §1
molecule,measurement,setting,value
"CCOC(=O)N[C@@H]1CC[C@@H]2[C@@H](C1)C[C@H]1C(=O)O[C@H](C)[C@H]1[C@H]2/C=C/c1ccc(-c2cccc(F)c2)cn1 [Vorapaxar, ethyl [(1R,3aR,4aR,6R,8aR,9S,9aS)-9-{(1E)-2-[5-(3-fluorophenyl)pyridin-2-yl]ethen-1-yl}-1-methyl-3-oxododecahydronaphtho[2,3-c]furan-6-yl]carbamate]",ALP activity,FOP-derived fibroblasts [1]; 1 μM,largely decreased
same,ALP expression (immunostaining),FOP-derived fibroblasts [1]; 1 μM,largely decreased
same,bone volume in the teratomas relative to vehicle,NOG mice,about one third
same,teratoma volume calculated from CT images versus vehicle,NOG mice,a significant difference in the teratoma volume was not observed
same,bones found in the teratomas (CT images) versus vehicle,NOG mice; after 2 weeks of administration,notably less
"CC(C)c1ccc(Cn2ccc3c4c(N)nc(NC5CC5)nc4ccc32)cc1 [SCH79797, N3-cyclopropyl-7-[[4-(1-methylethyl)phenyl]methyl]-7H-pyrrolo[3,2-f]quinazoline-1,3-diamine]",ALP activity,FOP-derived fibroblasts [1]; 200 nM,largely decreased
same,ALP expression (immunostaining),FOP-derived fibroblasts [1]; 200 nM,largely decreased
B1,mRNA expression level of PAR1,FOP-derived fibroblasts [2],remarkable increase
same,mRNA expression level of PAR1,[3],significantly increased
same,ALP activity compared to control,FOP-derived fibroblasts [4],significantly increased
same,ALP expression (immunostaining),FOP-derived fibroblasts [4],observed
